# Test results: patent US20260007601A1, “IONIZABLE CATIONIC LIPID COMPOUND AND COMPOSITION FOR DELIVERING NUCLEIC ACID AND USE THEREOF” (BEIJING YOUCAREKECHUANG PHARMACEUTICAL TECHNOLOGY CO., LTD., priority 2023, published 2026)
# Tests used:
# [1] = tested on: 293T cells; assay: Cell survival rate assay (CCK-8); format: cell-based; settings: LNP containing 1.5 μg Fluc-mRNA, 24 hours, CCK-8
# Experimental: (§1) Cell recovery and passaging: 293T cells were recovered and cultured in culture dishes to the required cell number.
# (§2) Plating: The cells in the culture dish were digested, counted, plated in a 96-well plate at 10,000 cells per well, or in a 12-well plate at 150,000 cells per well, and cultured overnight until the cells adhered to the wall.
# (§3) Cell recovery and passage: The method was the same as in Example 3.
# (§4) Plating: The method was the same as Example 3.
# The LNP formulations containing 1.5 μg Fluc-mRNA (prepared according to Example 4, the LNP formulation carrier components are cationic lipids, neutral lipids, structured lipids and polymer-conjugated lipids at a molar ratio of 49:10:39.5:1.5, wherein the cationic lipids are the cationic lipids listed in Table 1) and the Lipofectamine 3000 formulation were added to the cell culture medium of the 96-well plate, and the culture was continued for 24 hours. Then, 10 μL of CCK-8 solution was added to each well, and the culture plate was incubated in the incubator for 1 hour, and the absorbance at 450 nm was measured by a microplate reader.
# [2] = Encapsulation rate, drug loading concentration and total RNA concentration detection (RiboGreen); format: physicochemical; settings: LNP formulation of the named lipid
# Excerpt: Encapsulation rate is a key quality attribute of liposomes. It refers to the percentage of drug content encapsulated in the lipid bilayer to the total amount of drug added, which can reflect the degree of drug encapsulation in liposomes. The Chinese Pharmacopoeia stipulates that the encapsulation rate should usually not be less than 80%.
# The drug loading capacity is the ratio of the amount of drug in the liposome to the total amount of drug and carrier in the liposome. The drug loading capacity directly affects the clinical application dose of the drug, so the larger the drug loading capacity, the more it can meet clinical needs. The drug loading concentration is proportional to the drug loading capacity, and the relative proportion of the drug loading concentration can represent the relative proportion of the drug loading capacity. The relative proportion of the total RNA concentration can represent the relative proportion of the amount of mRNA carried by the LNP formulation.
# 1×TE buffer, 0.1% Triton X-100 buffer, and RiboGreen reagent (1:200) and mRNA standard stock solution were prepared.
# An appropriate amount of sample was taken and added to an appropriate amount of 1×TE buffer, which was diluted to a solution containing about 2.8 μg of the test sample per 1 mL. Then the sample was added to a 96-well plate, where 50 μL of the diluted test sample or mRNA standard stock solution was added to each well, and then added with 1×TE buffer and 0.1% Triton X-100 buffer. The samples were incubated at 37° C. for 10 minutes, and 100 μL of RiboGreen reagent (1:200) was added to each well of the 96-well plate. The plate was centrifuged, and read using an ELISA reader, and the data was processed.
# [3] = tested on: 293T cells; assay: Fluorescence detection of Fluc-mRNA (cell transfection efficiency of LNP formulations); format: cell-based; settings: for Relative light unit (RLU): LNP containing 0.3 μg Fluc-mRNA, 24 hours; for Multiples of values that equivalent to YK-201: RLU of YK-201 / RLU of the named lipid; for Multiples of values that equivalent to YK-202: RLU of YK-202 / RLU of the named lipid; for Multiples of values that equivalent to YK-209: RLU of YK-209 / RLU of the named lipid; for Ratio relative to SM-102: RLU of the named lipid / RLU of SM-102, times that of SM-102
# Experimental: as §1, §2, §3, §4
# The LNP formulation containing 0.3 μg Fluc-mRNA (prepared according to Example 4, the LNP formulation carrier components were cationic lipids, neutral lipids, structured lipids and polymer-conjugated lipids at a molar ratio of 49:10:39.5:1.5, and the cationic lipids were cationic lipids listed in Table 1) was added to the cell culture medium of a 96-well plate, and cultured for 24 hours. After that, the corresponding reagents were added according to the instructions of the Gaussia Luciferase Assay Kit, and the fluorescence expression intensity of each well was detected by the IVIS fluorescence detection system. This experiment verified the transfection efficiency of the LNP formulation in the cell, and the specific detection results are shown in Tables 6-9.
# [4] = tested on: female BALB/C mice; assay: Mouse in vivo imaging of Fluc-mRNA LNP formulations; design: average radiation intensity (mRNA expression): unit not given here; settings: 10 μg Fluc-mRNA LNP intramuscularly
# Experimental: The LNP formulation containing 10 μg Fluc-mRNA (prepared according to Example 4) was injected intramuscularly into female BALB/C mice aged 4 to 6 weeks and weighing 17 to 19 g, and the mice were intraperitoneally injected with fluorescent imaging substrates at specific time points (6 h, 24 h, 48 h and 7 d) after administration. The mice moved freely for 5 minutes, and then the average radiation intensity (corresponding to the fluorescence expression intensity) of the protein expressed by the mRNA carried by the LNP in the mice was detected by IVIS Spectrum small animal in vivo imager. The test results are shown in Tables 14 to 17 and FIGS. 12 to 14.
# [5] = Particle size and polydispersity index (PDI) of nanolipid particles, dynamic light scattering; format: physicochemical; settings: LNP formulation prepared from the named cationic lipid, 25° C
# Experimental: The particle size and polydispersity index (PDI) were determined by dynamic light scattering method using a Malvern laser particle size analyzer. 10 μL of liposome solution was diluted to 1 mL with RNase-free deionized water and added to a sample pool. Each sample was measured three times. The measurement conditions were: 90° scattering angle, 25° C.
Structure (SMILES),Cell survival rate [1],Drug loading concentration [2],Encapsulation rate [2],Total RNA concentration [2],Relative light unit (RLU) [3],Multiples of values that equivalent to YK-201 [3],Multiples of values that equivalent to YK-202 [3],Multiples of values that equivalent to YK-209 [3],Ratio relative to SM-102 [3],average radiation intensity (mRNA expression) ([4]; 6 h),average radiation intensity (mRNA expression) ([4]; 24 h),average radiation intensity (mRNA expression) ([4]; 48 h),average radiation intensity (mRNA expression) ([4]; 7 d),PDI [5],Particle size [5]
"CCCCCCCCC(CCCCCC)C(=O)OCCCCCCN(CCCCO)CCCCCCOC(=O)C(CCCCCC)CCCCCCCC (stereo not drawn) [ALC-0315, reference compound]",49.96%,26.05 µg/mL,62.8%,37.12 µg/mL,2147045 RLU,13.27,13.95,12.51,1.29,842355,182350,38130,6588,15.9%,218 nm
CCCCCCCCCCCOC(=O)CCCCCN(CCCCCCCC(=O)OC(CCCCCCCC)CCCCCCCC)CCN(C)CCOC [YK-215],44.59%,29.30 µg/mL,68.0%,43.13 µg/mL,981165 RLU,29.03,30.53,21.46,0.59,50564,6815,3640,1020,20.8%,219 nm
"CCCCCCCCCCOC(=O)CCCN(CCCCCC(=O)OCCC(CCCCCC)CCCCCC)CCOC(=O)SCCCN(C)C [YK-217, 3-hexylnonyl-11-(4-(decyloxy)-4-oxobutyl)-2-methyl-7-oxo-8-oxo-6-thio-2,11-diazaheptane-17-carboxylate]",42.27%,42.19 µg/mL,90.4%,46.66 µg/mL,71850 RLU,396.42,416.94,293.09,0.04,24585,2650,1024,523,17.9%,210 nm
"CCCCCCCCCCOC(=O)CCCN(CCO)CCCCCC(=O)OCC(CCCCCCCC)CCCCCCCC [YK-009, reference compound]",72.88%,26.86 µg/mL,63.0%,38.62 µg/mL,5125986 RLU,5.56,5.84,5.24,3.08,1012400,767850,128570,10741,13.0%,202 nm
